Measurements published in patent publication US20230085307A1, “PYRIDAZINONE COMPOUND AND HERBICIDE” (NISSAN CHEMICAL CORPORATION, priority 2019, published 2023).

How the values were obtained:
[1] = system: wild oat; test: Test Example 5: herbicidal effect by foliage application, plastic box (Table 20, symbol I); type: in vivo, wild oat (Avena fatua); conditions: foliage application, 320 g/ha, three weeks after application
In short: (§1)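 Foliar spray test: emulsion formulation diluted in water to a set application rate, sprayed onto 14-day-old plants raised in diluvial soil at 25° C to 30° C under glass. Both herbicidal effect and crop effect rated visually three weeks later.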

[2] = system: Japanese bulrush; test: Test Example 1: herbicidal activity, application before weed generation under submerged conditions (Table 16, symbol B); type: in vivo, Japanese bulrush (Schoenoplectus juncoides); conditions: 320 g/ha applied herbicide
In short: (§2)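 Submerged Wagner pots (alluvial soil, 4 cm water) sown with weed seeds and planted with 2.5-leaf rice seedlings; emulsifiable concentrate diluted in water applied to water surface on sowing day. Held in greenhouse at 25-30 °C; injury scored 0-5 by herbicidal rate after three weeks.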

[3] = system: chickweed; test: Test Example 5: herbicidal effect by foliage application, plastic box (Table 20, symbol P); type: in vivo, common chickweed (Stellaria media); conditions: foliage application, 320 g/ha, three weeks after application
In short: as §1

[4] = system: Chinese sprangletop; test: Test Example 3: herbicidal effect by foliage application, Wagner pot (Table 18, symbol D); type: in vivo, chinese sprangletop (Leptochloa chinensis); conditions: 320 g/ha
In short: (§3)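 Plants were sown in alluvial soil held under 0.1–0.5 cm standing water and grown 14 days in a greenhouse at 25–30 °C. An emulsifiable formulation, water-diluted to the set dose, was then sprayed onto the foliage, and effects were scored three weeks later using previously defined criteria.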

[5] = system: false cleavers; test: Test Example 5: herbicidal effect by foliage application, plastic box (Table 20, symbol Q); type: in vivo, false cleavers (Galium spurium); conditions: foliage application, 320 g/ha, three weeks after application
In short: as §1

[6] = system: late watergrass; test: Test Example 1: herbicidal activity, application before weed generation under submerged conditions (Table 16, symbol A); type: in vivo, late watergrass (Echinochloa oryzicola); conditions: 320 g/ha applied herbicide
In short: as §2

[7] = system: barnyard grass; test: Test Example 5: herbicidal effect by foliage application, plastic box (Table 20, symbol H); type: in vivo, barnyard grass (Echinochloa crus-galli); conditions: foliage application, 320 g/ha, three weeks after application
In short: as §1

[8] = system: velvetleaf; test: Test Example 5: herbicidal effect by foliage application, plastic box (Table 20, symbol M); type: in vivo, velvetleaf (Abutilon theophrasti); conditions: foliage application, 320 g/ha, three weeks after application
In short: as §1

[9] = system: Italian ryegrass; test: Test Example 5: herbicidal effect by foliage application, plastic box (Table 20, symbol K); type: in vivo, Italian ryegrass (Lolium multiflorum); conditions: foliage application, 320 g/ha, three weeks after application
In short: as §1

[10] = system: green foxtail; test: Test Example 5: herbicidal effect by foliage application, plastic box (Table 20, symbol G); type: in vivo, green foxtail (Setaria viridis); conditions: foliage application, 320 g/ha, three weeks after application
In short: as §1

[11] = system: windgrass; test: Test Example 5: herbicidal effect by foliage application, plastic box (Table 20, symbol L); type: in vivo, windgrass (Apera spica-venti); conditions: foliage application, 320 g/ha, three weeks after application
In short: as §1

[12] = system: rice flat sedge; test: Test Example 3: herbicidal effect by foliage application, Wagner pot (Table 18, symbol E); type: in vivo, rice flat sedge (Cyperus iria); conditions: 320 g/ha
In short: as §3

[13] = system: southern crabgrass; test: Test Example 5: herbicidal effect by foliage application, plastic box (Table 20, symbol F); type: in vivo, southern crabgrass (Digitaria ciliaris); conditions: foliage application, 320 g/ha, three weeks after application
In short: as §1

[14] = system: lambsquarters; test: Test Example 5: herbicidal effect by foliage application, plastic box (Table 20, symbol O); type: in vivo, lambsquarters (Chenopodium album); conditions: foliage application, 320 g/ha, three weeks after application
In short: as §1

[15] = system: oval-leafed pondweed; test: Test Example 1: herbicidal activity, application before weed generation under submerged conditions (Table 16, symbol C); type: in vivo, oval-leafed pondweed (Monochoria vaginalis); conditions: 320 g/ha applied herbicide
In short: as §2

[16] = system: barnyard grass; test: Test Example 3: herbicidal effect by foliage application, Wagner pot (Table 18, symbol H); type: in vivo, barnyard grass (Echinochloa crus-galli); conditions: 320 g/ha
In short: as §3

[17] = system: persian speedwell; test: Test Example 5: herbicidal effect by foliage application, plastic box (Table 20, symbol R); type: in vivo, Persian speedwell (Veronica persica); conditions: foliage application, 320 g/ha, three weeks after application
In short: as §1

[18] = system: blackgrass; test: Test Example 5: herbicidal effect by foliage application, plastic box (Table 20, symbol J); type: in vivo, blackgrass (Alopecurus myosuroides); conditions: foliage application, 320 g/ha, three weeks after application
In short: as §1

## COc1ccc(-c2sc3ccccc3c2-c2c(O)c(C)nn(C)c2=O)c(OC)c1 [1-070]
[1]
  herbicidal effect grade, I: wild oat: 1 (Herbicidal rate of 5% or more and less than 20%)
[2]
  Herbicidal effect on B: Japanese bulrush (grade 0-5): 3 (Herbicidal rate of 40% or more and less than 70%)
[3]
  herbicidal effect grade, P: chickweed: 5 (Herbicidal rate of 90% or more (almost completely withered))
[4]
  herbicidal effect on D (Chinese sprangletop), rating 0-5: 0 (Herbicidal rate of 5% or less (almost no effect))
[5]
  herbicidal effect grade, Q: false cleavers: 2 (Herbicidal rate of 20% or more and less than 40%)
[6]
  Herbicidal effect on A: late watergrass (grade 0-5): 3 (Herbicidal rate of 40% or more and less than 70%)
[7]
  herbicidal effect grade, H: barnyard grass: 0 (Herbicidal rate of 5% or less (almost no effect))
[8]
  herbicidal effect grade, M: velvetleaf: 2 (Herbicidal rate of 20% or more and less than 40%)
[9]
  herbicidal effect grade, K: Italian ryegrass: 1 (Herbicidal rate of 5% or more and less than 20%)
[10]
  herbicidal effect grade, G: green foxtail: 3 (Herbicidal rate of 40% or more and less than 70%)
[11]
  herbicidal effect grade, L: windgrass: 3 (Herbicidal rate of 40% or more and less than 70%)
[12]
  herbicidal effect on E (rice flat sedge), rating 0-5: 3 (Herbicidal rate of 40% or more and less than 70%)
[13]
  herbicidal effect grade, F: southern crabgrass: 3 (Herbicidal rate of 40% or more and less than 70%)
[14]
  herbicidal effect grade, O: lambsquarters: 0 (Herbicidal rate of 5% or less (almost no effect))
[15]
  Herbicidal effect on C: oval-leafed pondweed (grade 0-5): 1 (Herbicidal rate of 5% or more and less than 20%)
[16]
  herbicidal effect on H (barnyard grass), rating 0-5: 1 (Herbicidal rate of 5% or more and less than 20%)
[17]
  herbicidal effect grade, R: persian speedwell: 4 (Herbicidal rate of 70% or more and less than 90%)
[18]
  herbicidal effect grade, J: blackgrass: 0 (Herbicidal rate of 5% or less (almost no effect))
